Tested on: interferon-stimulated genes (ISGs)
Experiment: Microarray analysis of iCell Hepatocytes treated with the compound of example 1
Format: cell-based, Human
Excerpt: iCell Hepatocytes treated with the compound of example 1 results in the up and down-regulation of a host of genes; including a kinetic effect on interferon-stimulated gene (ISGs) expression. See FIGS. 15-I and 15-II, 16-I and 16-II and 18 and Table 1.

## O=C(NCc1cccc(F)c1)c1cccc2nc(-c3c(NC[C@@H](O)c4ccccc4)cc[nH]c3=O)[nH]c12 [Example 1, 2-[4-((S)-2-hydroxy-2-phenyl-ethylamino)-2-oxo-1,2-dihydro-pyridin-3-yl]-3H-benzoimidazole-4-carboxylic acid 3-fluoro-benzylamide]
DAY 7
  ARHGEF3 Raw Est Fold Change: −2.76
  ASNS Raw Est Fold Change: 1.63
  ATP1B3 Raw Est Fold Change: −1.72
  ATP10D Raw Est Fold Change: −2.21
  AXL Raw Est Fold Change: 5.52
  B2M Raw Est Fold Change: −1.77
  B4GALT5 Raw Est Fold Change: −2.50
  BAG1 Raw Est Fold Change: 1.33
  BCL3 Raw Est Fold Change: −3.15
  BHMT Raw Est Fold Change: 100.46
  BLVRA Raw Est Fold Change: −2.70
  BRF2 Raw Est Fold Change: 1.46
  C1R Raw Est Fold Change: −2.64
  C1S Raw Est Fold Change: −2.00
  C4BPA Raw Est Fold Change: −3.52
  C4orf33 Raw Est Fold Change: 1.65
  C6orf85 Raw Est Fold Change: 1.31
  C10orf10 Raw Est Fold Change: −6.70
  CAPN2 Raw Est Fold Change: −1.90
  CASP1 Raw Est Fold Change: 1.40
  CASP4 Raw Est Fold Change: −43.41
  CASP5 Raw Est Fold Change: −11.12
  CCL19 Raw Est Fold Change: 2.16
  CCND3 Raw Est Fold Change: −4.18
  CD3D Raw Est Fold Change: −3.72
  CD9 Raw Est Fold Change: 4.66
  CD38 Raw Est Fold Change: −60.43
  CD47 Raw Est Fold Change: −2.51
  CD163 Raw Est Fold Change: 4.54
  CD164 Raw Est Fold Change: −1.47
  CD300LF Raw Est Fold Change: −15.50
  CEBPD Raw Est Fold Change: −6.95
  CFB Raw Est Fold Change: −2.96
  CHST12 Raw Est Fold Change: −1.59
  CKB Raw Est Fold Change: 2.95
  CLEC2D Raw Est Fold Change: 2.54
  CLEC4E Raw Est Fold Change: 4.33
  COL16A1 Raw Est Fold Change: 1.53
  CPT1A Raw Est Fold Change: 1.49
  CREB3L3 Raw Est Fold Change: −4.65
  CREM Raw Est Fold Change: 1.71
  CRP Raw Est Fold Change: −63.77
  CRYM Raw Est Fold Change: 3.57
  CSDA Raw Est Fold Change: −5.60
  CTGF Raw Est Fold Change: −3.88
  CX3CR1 Raw Est Fold Change: 9.27
  CXCL11 Raw Est Fold Change: 3.15
  CYP1B1 Raw Est Fold Change: −6.56
  CYR61 Raw Est Fold Change: −7.93
  DHFR Raw Est Fold Change: 2.31
  DNAPTP6 Raw Est Fold Change: 2.61
  EFNB2 Raw Est Fold Change: −7.87
  EGR1 Raw Est Fold Change: −4.88
  EHHADH Raw Est Fold Change: 6.99
  EIF2AK2 Raw Est Fold Change: −1.14
  EIF2S2 Raw Est Fold Change: 1.81
  EMP1 Raw Est Fold Change: 2.60
  EPAS1 Raw Est Fold Change: −1.83
  EREG Raw Est Fold Change: −21.64
  ETS2 Raw Est Fold Change: −2.17
  ETV6 Raw Est Fold Change: −1.87
  ETV7 Raw Est Fold Change: −3.42
  EWSR1 Raw Est Fold Change: −2.03
  F3 Raw Est Fold Change: 2.54
  FAM70A Raw Est Fold Change: 4.10
  FAM102A Raw Est Fold Change: −1.88
  FBXO6 Raw Est Fold Change: 3.59
  FCGR1A Raw Est Fold Change: 2.56
  FER1L3 Raw Est Fold Change: −2.43
  FGG Raw Est Fold Change: −1.22
  FLT1 Raw Est Fold Change: −1.38
  FNDC3B Raw Est Fold Change: −2.02
  G6PC Raw Est Fold Change: 6.12
  GALNT2 Raw Est Fold Change: −6.32
  GBP2 Raw Est Fold Change: −4.50
  GBP3 Raw Est Fold Change: 2.28
  GCH1 Raw Est Fold Change: 1.83
  GK Raw Est Fold Change: −2.38
  GLB1 Raw Est Fold Change: −1.33
  GLUL Raw Est Fold Change: 3.54
  GNB1 Raw Est Fold Change: −1.39
  GPR171 Raw Est Fold Change: 1.93
  GRN Raw Est Fold Change: −1.37
  HAO1 Raw Est Fold Change: 3.59
  HBE1 Raw Est Fold Change: −2.67
  HDAC2 Raw Est Fold Change: −1.34
  HEG1 Raw Est Fold Change: −4.07
  HERC6 Raw Est Fold Change: −1.49
  HESX1 Raw Est Fold Change: 3.01
  HIF1A Raw Est Fold Change: −4.78
  HK2 Raw Est Fold Change: −3.18
  HLA-DMA Raw Est Fold Change: −2.39
  HLA-DOA Raw Est Fold Change: 3.70
  HPSE Raw Est Fold Change: −2.92
  ICAM1 Raw Est Fold Change: −9.02
  ID1 Raw Est Fold Change: −5.53
  IER3 Raw Est Fold Change: −9.69
  IFI16 Raw Est Fold Change: −11.00
  IFIH1 Raw Est Fold Change: 1.47
  IFIT1 Raw Est Fold Change: 16.72
  IFIT3 Raw Est Fold Change: 2.91
  IFITM1 Raw Est Fold Change: −15.75
  IFITM2 Raw Est Fold Change: −4.71
  IFITM3 Raw Est Fold Change: −1.73
  IFNGR1 Raw Est Fold Change: −3.76
  IGHM Raw Est Fold Change: 3.80
  IKZF2 Raw Est Fold Change: −2.69
  IL1RN Raw Est Fold Change: −2.59
  IL6ST Raw Est Fold Change: −1.83
  IL8 Raw Est Fold Change: −9.22
  IL17RB Raw Est Fold Change: 1.38
  IL28RA Raw Est Fold Change: 1.55
  IMPA2 Raw Est Fold Change: −1.62
  INPP5B Raw Est Fold Change: 1.29
  IQGAP1 Raw Est Fold Change: −2.60
  IRF1 Raw Est Fold Change: 1.36
  IRF7 Raw Est Fold Change: −3.42
  IRF8 Raw Est Fold Change: −1.86
  ISOC1 Raw Est Fold Change: 1.96
  ITGA2 Raw Est Fold Change: −5.40
  ITGA6 Raw Est Fold Change: 1.89
  JAK2 Raw Est Fold Change: 1.39
  JUNB Raw Est Fold Change: −8.16
  KIAA0040 Raw Est Fold Change: −1.76
  KIF5C Raw Est Fold Change: −4.32
  KPNB1 Raw Est Fold Change: −1.34
  LRP4 Raw Est Fold Change: −2.80
  LTBP2 Raw Est Fold Change: −2.94
  LYN Raw Est Fold Change: −1.71
  MAFB Raw Est Fold Change: 6.31
  MAFK Raw Est Fold Change: −1.70
  MAP3K8 Raw Est Fold Change: −6.22
  MAX Raw Est Fold Change: −1.95
  MCL1 Raw Est Fold Change: −1.33
  MSR1 Raw Est Fold Change: 16.00
  MT1F Raw Est Fold Change: 2.56
  MTHFD2L Raw Est Fold Change: −5.12
  MTMR1 Raw Est Fold Change: −1.20
  MYC Raw Est Fold Change: −7.27
  MYD88 Raw Est Fold Change: 1.19
  MYOM2 Raw Est Fold Change: 1.59
  MYT1 Raw Est Fold Change: −3.88
  NEXN Raw Est Fold Change: −2.35
  NFE2 Raw Est Fold Change: −5.79
  NFIL3 Raw Est Fold Change: −1.60
  NGFB Raw Est Fold Change: 1.97
  NLRC5 Raw Est Fold Change: −3.27
  NMI Raw Est Fold Change: 1.34
  NPAS2 Raw Est Fold Change: −4.43
  OPTN Raw Est Fold Change: 1.28
  PADI2 Raw Est Fold Change: 4.13
  PARP14 Raw Est Fold Change: 1.33
  PCK2 Raw Est Fold Change: 8.00
  PCMT1 Raw Est Fold Change: −1.45
  PCTK3 Raw Est Fold Change: 2.27
  PDGFRL Raw Est Fold Change: −3.16
  PEX26 Raw Est Fold Change: 1.38
  PHF11 Raw Est Fold Change: −2.75
  PHF15 Raw Est Fold Change: −1.69
  PHLDA1 Raw Est Fold Change: −9.08
  PI4K2B Raw Est Fold Change: 1.41
  PIM3 Raw Est Fold Change: −2.64
  PLAC8 Raw Est Fold Change: 5.43
  PLAUR Raw Est Fold Change: −2.56
  PLSCR1 Raw Est Fold Change: −2.59
  PML Raw Est Fold Change: −2.58
  PON1 Raw Est Fold Change: 5.18
  PON2 Raw Est Fold Change: −1.39
  PPIC Raw Est Fold Change: −2.26
  PSMB10 Raw Est Fold Change: 1.91
  PTEN Raw Est Fold Change: −1.44
  PUS1 Raw Est Fold Change: −1.41
  PXK Raw Est Fold Change: −1.23
  RAB27A Raw Est Fold Change: −5.10
  RAN Raw Est Fold Change: −1.29
  RBMS1 Raw Est Fold Change: −3.48
  RECQL Raw Est Fold Change: −1.66
  RIPK2 Raw Est Fold Change: −1.45
  RPL22 Raw Est Fold Change: 3.02
  RSAD2 Raw Est Fold Change: 5.52
  RXRA Raw Est Fold Change: 1.28
  SAA1 Raw Est Fold Change: −1.51
  SAMD9L Raw Est Fold Change: 2.42
  SCARB2 Raw Est Fold Change: 1.64
  SDC2 Raw Est Fold Change: 1.66
  SELL Raw Est Fold Change: 3.83
  SELP Raw Est Fold Change: 5.95
  SERPINB9 Raw Est Fold Change: −1.86
  SF3A1 Raw Est Fold Change: 1.26
  SFPQ Raw Est Fold Change: −1.57
  SHMT2 Raw Est Fold Change: 1.44
  SLC7A5 Raw Est Fold Change: 1.78
  SLC10A1 Raw Est Fold Change: 10.61
  SLC15A2 Raw Est Fold Change: −1.52
  SLC20A1 Raw Est Fold Change: 1.90
  SLC25A28 Raw Est Fold Change: −1.47
  SLC30A1 Raw Est Fold Change: 2.66
  SLFN12 Raw Est Fold Change: −1.92
  SOAT2 Raw Est Fold Change: 11.97
  SOCS1 Raw Est Fold Change: −42.96
  SOCS3 Raw Est Fold Change: −17.74
  SPSB1 Raw Est Fold Change: −2.63
  SPTLC2 Raw Est Fold Change: −1.49
  SRGAP2 Raw Est Fold Change: 1.95
  SSBP3 Raw Est Fold Change: 1.49
  SSR1 Raw Est Fold Change: −1.71
  STAT1 Raw Est Fold Change: −4.03
  STEAP4 Raw Est Fold Change: −1275.83
  STK39 Raw Est Fold Change: −1.88
  TAP1 Raw Est Fold Change: −1.72
  TAP2 Raw Est Fold Change: −2.02
  TARBP1 Raw Est Fold Change: −1.18
  TCF7L2 Raw Est Fold Change: −1.57
  TEAD4 Raw Est Fold Change: −6.47
  TFDP2 Raw Est Fold Change: 1.26
  TFEC Raw Est Fold Change: 7.83
  TFPI Raw Est Fold Change: −1.80
  THBD Raw Est Fold Change: −6.70
  TIMP1 Raw Est Fold Change: −11.92
  TMEM2 Raw Est Fold Change: −3.07
  TMEM49 Raw Est Fold Change: −1.98
  TNFSF14 Raw Est Fold Change: −2.68
  TOR1B Raw Est Fold Change: −1.39
  TPM1 Raw Est Fold Change: 1.77
  TRIB3 Raw Est Fold Change: 1.84
  TRIM14 Raw Est Fold Change: 1.68
  TXNIP Raw Est Fold Change: −7.72
  UBE1L Raw Est Fold Change: 1.65
  UBE2S Raw Est Fold Change: −1.95
  ULK4 Raw Est Fold Change: −4.12
  UPP2 Raw Est Fold Change: 16.78
  USP25 Raw Est Fold Change: 1.84
  WARS Raw Est Fold Change: −1.50
  WAS Raw Est Fold Change: 3.44
  XRCC6BP1 Raw Est Fold Change: 1.33
  ZC3HAV1 Raw Est Fold Change: −1.57
  ZNF24 Raw Est Fold Change: −1.16
  ZNF276 Raw Est Fold Change: 1.44
  ZNF313 Raw Est Fold Change: 1.31
Microarray heat map, FIG. 15
  interferon-stimulated genes (ISGs) expression: down-regulated interferon-stimulated genes (ISGs) as early as 2 hr
microarray, FIG. 15
  CREB3L1 expression: down-regulated as early as 2 hr post treatment
  SLC10A1 expression: up-regulated at 7 day post-treatment

From US9181218B2, “Compounds for improved stem cell differentiation into hepatocytes” (Hoffmann-La Roche Inc., priority 2013, dated 2015)
